The text below walks through data of US9688695B2, “Imidazothiadiazole and imidazopyrazine derivatives as protease activated receptor 4 (PAR4) inhibitors for treating platelet aggregation” (BRISTOL-MYERS SQUIBB COMPANY, priority 2012, dated 2017).

This test concerns the target PAR4 (Homo sapiens (Human), UniProt Q96RI0). Briefly: FLIPR assay in PAR4-expressing HEK293 cells (PAR4 antagonist activity, calcium mobilization). It is filed as cell-based. As to conditions: H-Ala-Phe(4-F)-Pro-Gly-Trp-Leu-Val-Lys-Asn-Gly-NH2-induced calcium mobilization. The text has this:
The FLIPR assay is an exemplary in vitro assay for measuring the activity of the PAR4 antagonists of the present invention. In this assay, intracellular calcium mobilization is induced in PAR4 expressing cells by a PAR4 agonist and calcium mobilization is monitored. See, e.g., Example A.
HEK293 cells stably expressing PAR4 were generated by a standard method of transfection of human […] cDNA expression vector or by RAGE technology from Athersys Inc. (Cleveland, Ohio) and selected based on PAR4 protein expression of mRNA expression. […] These cells express endogenous PAR1 and can elicit calcium signal upon stimulation with PAR1 agonist peptide.
Counter screens for agonist activity and PAR1 antagonist activity were also performed. Briefly, HEK293 EBNA PAR4 clone 20664.1J cells were plated 24 hrs. prior to experiment in 384 well, Poly-D-Lysine coated, black, clear bottom plates (Greiner Bio-One, Monroe, N.C.). Cells were plated at 20,000 cells/well in […] growth medium and incubated at 37° C. with 5% CO2 overnight. At time of assay, media was replaced with 40 μl 1× Hank's Buffered Saline Solution (HBSS) (with 10 mM HEPES) and 20 μl test compound also diluted in 1×HBSS buffer was added at various concentrations and 0.67% DMSO final concentration on the FDSS for agonist measurement. The cells were then incubated for 30 minutes at room temperature followed by addition of 20 μl of agonist peptide for antagonist measurement on the FDSS.
As indicated above, the FLIPR assay, an in vitro assay, measures the PAR4 antagonist activity of compounds tested as described in Example A. The PRP assay, an in vitro assay, measures the PAR4 antagonist assay of the compounds tested in the presence of plasma proteins and thrombin agonist as described in Example C.
(In general: A change in cytosolic calcium serves as a functional read-out for many receptors and channels.)

Counter-ions that a name gives are not always drawn.

PAR4, sequence (Q96RI0 18-385): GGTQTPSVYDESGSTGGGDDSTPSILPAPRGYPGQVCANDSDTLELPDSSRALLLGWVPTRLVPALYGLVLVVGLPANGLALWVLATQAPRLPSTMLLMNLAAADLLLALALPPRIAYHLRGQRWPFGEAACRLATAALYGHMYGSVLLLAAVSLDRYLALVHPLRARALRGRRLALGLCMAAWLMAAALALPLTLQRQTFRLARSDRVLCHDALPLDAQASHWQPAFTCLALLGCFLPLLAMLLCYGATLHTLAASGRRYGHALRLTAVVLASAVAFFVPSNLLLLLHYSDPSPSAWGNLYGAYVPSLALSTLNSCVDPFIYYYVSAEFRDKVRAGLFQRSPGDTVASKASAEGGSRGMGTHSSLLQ

As usually defined, the EC50 is the midpoint of the concentration-response curve. For `COc1cc(OCc2csc(C3(c4ccccc4)CCOCC3)n2)c2cc(-c3cn4nc(OC)sc4n3)oc2c1` [Example 162, 2-Methoxy-6-(6-methoxy-4-((2-(4-phenyltetrahydro-2H-pyran-4-yl)thiazol-4-yl)methoxy)benzofuran-2-yl)imidazo[2,1-b][1,3,4]thiadiazole], the EC50 was 670 pM.

As to `COc1cc(OCc2csc(N3CCN(S(=O)(=O)c4ccc(C#N)cc4)CC3)n2)c2cc(-c3cn4nc(OC)sc4n3)oc2c1` [Example 101, 4-((4-(4-(((6-Methoxy-2-(2-methoxyimidazo[2,1-b][1,3,4]thiadiazol-6-yl)benzofuran-4-yl)oxy)methyl)thiazol-2-yl)piperazin-1-yl)sulfonyl)benzonitrile], the EC50 is 360 pM.

Take `CNC(=O)c1ccc(-c2nc(COc3cc(F)cc4oc(-c5cn6nc(OC)sc6n5)cc34)c(C)s2)cc1` [Example 186, 4-(4-(((6-Fluoro-2-(2-methoxyimidazo[2,1-b][1,3,4]thiadiazol-6-yl)benzofuran-4-yl)oxy)methyl)-5-methylthiazol-2-yl)-N-methylbenzamide]: the EC50 stood at 580 pM.

Turning to `COc1cc(OCc2nc(N3CCOCC3)oc2C)c2cc(-c3cn4nc(OC)sc4n3)oc2c1` [Example 97, 4-(4-(((6-Methoxy-2-(2-methoxyimidazo[2,1-b][1,3,4]thiadiazol-6-yl)benzofuran-4-yl)oxy)methyl)-5-methyloxazol-2-yl)morpholine], the EC50 amounted to 630 pM.

In the case of `COc1cc(OCc2csc(C(O)(C3CCCCC3)C(F)(F)F)n2)c2cc(-c3cn4nc(OC)sc4n3)oc2c1` (stereo not shown) [Example 146], the EC50 was determined as 730 pM.

Consider `COc1cc(OCc2csc(C3(OC)CCOCC3)n2)c2cc(-c3cn4nc(OC)sc4n3)oc2c1` [Example 120, 2-Methoxy-6-(6-methoxy-4-((2-(4-methoxytetrahydro-2H-pyran-4-yl)thiazol-4-yl)methoxy)benzofuran-2-yl)imidazo[2,1-b][1,3,4]thiadiazole], for which the 50% effective concentration (EC50) came to 450 pM.

Regarding `COc1cc(OCc2csc(N3CCN(c4ccccc4)CC3)n2)c2cc(-c3cn4nc(C)ccc4n3)oc2c1` [Example 262], the EC50 was 750 pM.

For `COc1cc(OCc2csc(-c3ccccc3OC)n2)c2cc(-c3cn4nc(OC)sc4n3)oc2c1` [Example 19], the EC50 worked out at 1000 pM.

Turning to `COc1cc(OCc2csc(-c3ccncc3)n2)c2cc(-c3cn4nc(C)ccc4n3)oc2c1` [Example 232], the EC50 turned out to be 990 pM.

Turning to `COc1cc(OC(C)c2csc(-c3ccccc3)n2)c2cc(-c3cn4nc(OC)sc4n3)oc2c1` (stereo not shown) [Example 83, 2-Methoxy-6-(6-methoxy-4-(1-(2-phenylthiazol-4-yl)ethoxy)benzofuran-2-yl)imidazo[2,1-b][1,3,4]thiadiazole], the EC50 was 1100 pM.

Turning to `COc1cc(OCc2csc(N3CCN(S(C)(=O)=O)CC3)n2)c2cc(-c3cn4nc(C)ccc4n3)oc2c1` [Example 236], the EC50 came to 1900 pM.

As to `COc1cc(OCc2nc(-c3ccc(C(=O)NCC(F)(F)F)cc3)sc2C)c2cc(-c3cn4nc(OC)sc4n3)oc2c1` [Example 47, 4-(4-(((6-Methoxy-2-(2-methoxyimidazo[2,1-b][1,3,4]thiadiazol-6-yl)benzofuran-4-yl)oxy)methyl)-5-methylthiazol-2-yl)-N-(2,2,2-trifluoroethyl)benzamide], the EC50 is 770 pM.

For the molecule `COc1cc(OCc2csc(C3(N)CCOCC3)n2)c2cc(-c3cn4nc(OC)sc4n3)oc2c1` [Example 172, 4-(4-(((6-Methoxy-2-(2-methoxyimidazo[2,1-b][1,3,4]thiadiazol-6-yl)benzofuran-4-yl)oxy)methyl)thiazol-2-yl)tetrahydro-2H-pyran-4-amine, HCl], the EC50 was determined as 940 pM.

As to `COc1cc(OCc2nc(-c3cccc(CO)c3)sc2C)c2cc(-c3cn4nc(C)ccc4n3)oc2c1` [Example 230], the EC50 came to 1300 pM.

On to `COc1cc(OCc2csc(-c3cccc(OC(C)=O)c3)n2)c2cc(-c3cn4nc(C)ccc4n3)oc2c1` [Example 221], for which the EC50 was found to be 1200 pM.

As for `COc1cc(OCc2csc(-c3ccc(OC(F)(F)F)cc3)n2)c2cc(-c3cn4nc(C)ccc4n3)oc2c1` [Example 210, 4-(((6-Methoxy-2-(6-methylimidazo[1,2-b]pyridazin-2-yl)benzofuran-4-yl)oxy)methyl)-2-(4-(trifluoromethoxy)phenyl)thiazole], the EC50 was found to be 860 pM.

As for `COc1cc(OCc2csc(-c3ccc(C(F)(F)F)cc3)n2)c2cc(-c3cn4nc(C)ccc4n3)oc2c1` [Example 208, 4-(((6-Methoxy-2-(6-methylimidazo[1,2-b]pyridazin-2-yl)benzofuran-4-yl)oxy)methyl)-2-(4-(trifluoromethyl)phenyl)thiazole], the EC50 stood at 820 pM.

As for `CCN(CCC#N)C(=O)c1ccc(-c2nc(COc3cc(OC)cc4oc(-c5cn6nc(OC)sc6n5)cc34)cs2)cc1` [Example 292], the EC50 is 270 pM.

With `COc1cc(OCc2csc(-c3ccc(C(=O)N4CCC4)cc3)n2)c2cc(-c3cn4nc(OC)sc4n3)oc2c1` [Example 289], the EC50 was 1200 pM.

On to `CCC(O)(CC)c1nc(COc2cc(OC)cc3oc(-c4cn5nc(OC)sc5n4)cc23)cs1` [Example 140], for which the EC50 was found to be 670 pM.

Regarding `COc1cc(OCc2csc(-c3ccc(OC(F)(F)F)cc3)n2)c2cc(-c3cn4nc(OC)sc4n3)oc2c1` [Example 29], the half-maximal effective concentration (EC50) stood at 1400 pM.

`COc1cc(OCc2csc(-c3cccc(O)c3)n2)c2cc(-c3cn4nc(OC)sc4n3)oc2c1` [Example 63]: the EC50 came to 630 pM.

As to `COc1cc(OCc2csc(-c3ccc(C(=O)N4C(C)CCC4C)cc3)n2)c2cc(-c3cn4nc(OC)sc4n3)oc2c1` (stereo not shown) [Example 317], the EC50 was 1600 pM.

In the case of `COc1cc(OCc2csc(C3(F)CCOCC3)n2)c2cc(-c3cn4nc([C@H](C)F)sc4n3)oc2c1` [Example 197, (S)-2-(1-Fluoroethyl)-6-(4-((2-(4-fluorotetrahydro-2H-pyran-4-yl)thiazol-4-yl)methoxy)-6-methoxybenzofuran-2-yl)imidazo[2,1-b][1,3,4]thiadiazole], the half-maximal effective concentration (EC50) was found to be 340 pM.

As to `COc1cc(OCc2csc(C3(F)CCOCC3)n2)c2cc(-c3cn4nc(OC)sc4n3)oc2c1` [Example 119, 6-(4-((2-(4-Fluorotetrahydro-2H-pyran-4-yl)thiazol-4-yl)methoxy)-6-methoxybenzofuran-2-yl)-2-methoxyimidazo[2,1-b][1,3,4]thiadiazole], the EC50 was 720 pM.

As for `COc1nn2cc(-c3cc4c(OCc5csc(-c6cccc(C)c6)n5)cc(Cl)cc4o3)nc2s1` [Example 189, 6-(6-Chloro-4-((2-(m-tolyl)thiazol-4-yl)methoxy)benzofuran-2-yl)-2-methoxyimidazo[2,1-b][1,3,4]thiadiazole], the EC50 was 1300 pM.

`COc1cc(OCc2csc(N3C[C@@H](C)O[C@@H](C)C3)n2)c2cc(-c3cn4nc(C)ccc4n3)oc2c1` [Example 216]: the 50% effective concentration (EC50) was found to be 990 pM.

As to `COc1cc(OCc2csc(C3(c4ccccc4F)CCOCC3)n2)c2cc(-c3cn4nc(OC)sc4n3)oc2c1` [Example 156, 6-(4-((2-(4-(2-Fluorophenyl)tetrahydro-2H-pyran-4-yl)thiazol-4-yl)methoxy)-6-methoxybenzofuran-2-yl)-2-methoxyimidazo[2,1-b][1,3,4]thiadiazole], the EC50 was found to be 520 pM.

With `COc1cc(OCc2csc(C3(c4ccc(C)cc4)CCOCC3)n2)c2cc(-c3cn4nc(C)ccc4n3)oc2c1` [Example 242], the EC50 stood at 590 pM.

`COc1cc(OCc2csc(-c3ccc(S(C)(=O)=O)cc3)n2)c2cc(-c3cn4nc(C)ccc4n3)oc2c1` [Example 234]: the EC50 is 660 pM.

Regarding `COc1cc(OCc2csc(-c3ccc(C(=O)N(C4CC4)C4CC4)cc3)n2)c2cc(-c3cn4nc(OC)sc4n3)oc2c1` [Example 316], the EC50 stood at 950 pM.

With `COc1cc(OCc2csc(C3(F)CC(C)OC(C)C3)n2)c2cc(-c3cn4nc(OC)sc4n3)oc2c1` (stereo not shown) [Example 122, 6-(4-((2-(4-Fluoro-2,6-dimethyltetrahydro-2H-pyran-4-yl)thiazol-4-yl)methoxy)-6-methoxybenzofuran-2-yl)-2-methoxy-imidazo[2,1-b][1,3,4]thiadiazole], the EC50 is 720 pM.

For the molecule `COc1nn2cc(-c3cc4c(OCc5csc(-c6ccccc6)n5)cc(Cl)cc4o3)nc2s1` [Example 187, 6-(6-Chloro-4-((2-phenylthiazol-4-yl)methoxy)benzofuran-2-yl)-2-methoxyimidazo[2,1-b][1,3,4]thiadiazole], the EC50 was found to be 1600 pM.

For `COc1cc(OCc2csc(C(O)(C3CC3)C3CC3)n2)c2cc(-c3cn4nc(OC)sc4n3)oc2c1` [Example 144], the EC50 was 260 pM.

Regarding `COc1cc(OCc2csc(-c3ccc(C(=O)NC4COC4)cc3)n2)c2cc(-c3cn4nc(OC)sc4n3)oc2c1` [Example 295], the EC50 stood at 92000 pM.

Take `COc1cc(OCc2csc(-c3ccc(C(=O)N(C)CC4CC4)cc3)n2)c2cc(-c3cn4nc(OC)sc4n3)oc2c1` [Example 314]: the EC50 was determined as 370 pM.

For `COc1cc(OCc2csc(N3CCC4(CC3)CC4)n2)c2cc(-c3cn4nc(C)ccc4n3)oc2c1` [Example 278], the EC50 was 1400 pM.
